Source: US12414959B2, “Glucose infusion solution composition” (priority 2017, dated 2025)
Converted amounts (≈) assume the structure as drawn.

Key:
[1] = Stabilizer test (sodium bisulfite, EDTA-2Na dihydrate): color, pH and osmolality over 10 days
Procedure: First, 200 μl of sample F6 was added to 1800 μl of water for injection, and then stirred at room temperature, thereby preparing six samples, each consisting of 2 ml of a 10-fold-diluted sugar solution (samples a, a-1, b, b-1, c and c-1).
Next, the pH of each of the six samples was measured, and then adjusted with NaOH so as to be close to in vivo plasma pH 7.4.
A 0.1% solution of sodium bisulfite was prepared by mixing 5 mg of sodium bisulfite as stabilizer with 5 ml of water for injection, and a 0.2% solution of EDTA-2Na dihydrate was prepared by mixing 10 mg of EDTA-2Na dihydrate with 5 ml of water for injection. Then, 110 μl of each of the prepared solutions was added to some of the six 10-fold-diluted sugar solutions.

[2] = Preparation of clear sugar mixture solutions: clearness of dissolution; format: physicochemical; conditions: added in an amount of two times the solubility until colorless, water for injection, room temperature
Procedure: Then, each sugar was added to 2 ml of water for injection, and stirred at room temperature until a clear solution was obtained. […] In addition, a sample was prepared by doubling the amount of sample F1, and the clearness of the solution was observed (F2).

[3] = cited from earlier work
[4] = Preliminary experiment on amino acids excluded from the test; format: physicochemical

| SMILES | suitability as stabilizer for sample F6 [1] | clearness of dissolution [2] | Solubility (Colorless): Solubility until colorless [3] | Solubility (Maximum): A maximum of solubility [3] | initial osmolality variation when added [4] |
| --- | --- | --- | --- | --- | --- |
| O.O.O=C([O-])CN(CCN(CC(=O)O)CC(=O)O)CC(=O)[O-].[Na+].[Na+] [EDTA-2NA dihydrate, disodium edetate dihydrate] | not suitable | – | – | – | – |
| O=C[C@H](O)[C@@H](O)[C@@H](O)[C@H](O)CO [Galactose, galactose] | – | clearly dissolved | 100 mg/mL (≈ 555 mM) | 683 mg/mL | – |
| O=C[C@H](O)[C@@H](O)[C@H](O)[C@H](O)CO [Glucose, glucose] | – | clearly dissolved | 133 mg/mL (≈ 738 mM) | – | – |
| C[C@H](O)[C@@H](O)[C@@H](O)[C@H](O)C=O [L-Fucose, L-fucose] | – | clearly dissolved | 50 mg/mL (≈ 305 mM) | 827 mg/mL | – |
| CC(=O)N[C@H]1C(O)O[C@H](CO)[C@H](O)[C@@H]1O (stereo partly drawn) [N-Acetyl galactosamine, N-acetylgalactosamine] | – | clearly dissolved | 50 mg/mL (≈ 226 mM) | 100 mg/mL | – |
| CC(=O)N[C@H]1C(O)O[C@H](CO)[C@@H](O)[C@@H]1O (stereo partly drawn) [N-Acetyl glucosamine, N-acetylglucosamine] | – | clearly dissolved | 50 mg/mL (≈ 226 mM) | 50 mg/mL | – |
| CC(=O)N[C@H]1[C@H]([C@H](O)[C@H](O)CO)OC(O)(C(=O)O)C[C@@H]1O (stereo partly drawn) [N-Acetyl neuraminic acid, N-acetylneuraminic acid] | – | not clearly dissolved | 50 mg/mL (≈ 162 mM) | 50 mg/mL | – |
| O=C[C@H](O)[C@@H](O)[C@H](O)CO [Xylose, xylose] | – | not clearly dissolved | 50 mg/mL (≈ 333 mM) | 100 mg/mL | – |
| N[C@@H](CS)C(=O)O [cysteine] | – | – | – | – | excessively high |
| O=S([O-])O.[Na+] [sodium bisulfite] | not suitable | – | – | – | – |
| N[C@@H](Cc1c[nH]c2ccccc12)C(=O)O [tryptophan] | – | – | – | – | excessively high |
